Measurements as given in patent publication US20220087970A1, “PREVENTION OF ANESTHETIC-INDUCED NEUROCOGNITIVE DYSFUNCTION” (The Johns Hopkins University, priority 2019, published 2022).

How the values were obtained:
ERK = test: Western blot, phosphorylation status of ERK in hippocampal tissues; assay type: in vivo; conditions: PND7 mice; BAY 60-7550 3 mg/kg 30 min, molsidomine 4 mg/kg 30 min
Experimental: PND7 mice were exposed to isoflurane (1.5% ISO in 02, 4 hr), control gas (100% O2, 4 hr), PDE inhibitor (BAY 60-7550, 3 mg/kg, 30 min), or NO donor (molsidomine, 4 mg/kg, 30 min), we harvested hippocampal tissues for Western blotting to assess the phosphorylation status of ERK.

neuron cultures = test: Neuron cultures, synapses (PSD95/Synaptophysin puncta) at DIV14; assay type: cell-based; conditions: DETA 150 μM and ODQ 100 μM for 4 hrs right before exposure to gases at DIV7
Experimental: Neuron cultures were transfected with GFP-AAV virus at DIV-4 and were exposed to NO donor (DETA) 150 μM and sGC inhibitor (ODQ) 100 μM for 4 hrs right before exposure to gases at DIV7. Cells were returned back to incubator with half media change every second day. At DIV14, cells were fixed and stained with PSD95 and Synaptophysin. […] Scale bar is 5 μm. FIG. 23B: Synapse were analyzed using puncta analyzer plugin as shown in methods section.

primary neuron cultures = test: Primary neuron cultures, long thin spines and filopodia at DIV7; assay type: cell-based; conditions: for effect on PDZ2WT-induced loss of long thin spines and filopodia at DIV7: PDZ2WT peptide 1 μM 4 hrs; for effect on PDZ2WT-induced loss of long thin spines and filopodia at DIV7 / effect on isoflurane-induced loss of long thin spines and filopodia at DIV7: DETA NONOate 150 μM, ODQ 100 μM added to NO donor; for effect on isoflurane-induced loss of long thin spines and filopodia at DIV7: isoflurane 1.5% 4 hrs
Experimental: Primary neuron cultures were exposed to control gas (25% O2, 5% CO2, bal N2), isoflurane (1.5% ISO in 25% O2, 5% CO2, bal N2), DETA NONOate NO donor 150 μM and sGC inhibitor ODQ 100 μM for 4 hrs. […] MAP2 dendrite marker, green. Drebrin A/E immature spine/filopodia marker, red. Scale bar is 5 μm. FIG. 20B, Density of long thin spines and filopodia at DIV7 among exposed groups analyzed using Imaris 93.1;
MAP2, green. Drebrin, red. Scale bar is 5 μm. FIG. 21B, show the density of long thin spines and filopodia among exposed groups;
Neuron cultures were exposed to control gas (25% O2, 5% CO2, balance N2) or sevoflurane (2.1% ISO in 25% O2, 5% CO2, balanced N2) for 4 hrs. […] Scale bar is 5 μm. FIG. 22B, Density of long thin spines and filopodia among exposed groups; and […]

[1] = test system: PSD-95 or PSD-93 and the NMDA receptor or nNOS; conditions: clinically relevant concentrations; Fang et al., 2003; Tao et al., 2015; cited from earlier work
[2] = test system: hippocampal dendritic mushroom spines (dentate gyrus); assay type: in vivo, mice; conditions: molsidomine 4 mg/kg ip after PND7 exposure, PND49
Experimental: PND7 control and experimental mice were placed in a clear plastic cone and body temperature maintained by a heating blanket set to 35° C. Heart rate (HR) and oxyhemoglobin saturation (SpO2) were continuously monitored using pulse-oximetry (PhysioSuite, Kent Scientific). Arterial blood was collected by terminal cardiac puncture of the left ventricle from sentinels and pH (pHa) determined using a blood gas machine (ABL800 FLEX Series Radiometer). […] Naïve control animals were left with the dams. Control ‘CON’ animals were exposed to oxygen only. Anesthesia was initiated with 2.4% isoflurane in oxygen for 2 min and tapered down to 1.5% within 15 min. Exposure to 1.5% isoflurane was continued for 3 hours and 45 min (total 4 hours ISO). At the end of the exposure animals were maintained in oxygen on the heating blanket for 10 min then returned to dams. […] Tao and Johns, 2008. Purification of fusion peptides was performed by Creative BioMart (Shirley, N.Y.) and verified by Coomassie blue staining and Western blot analysis and then stored in 10% glycerol/phosphate-buffered saline at −80° C. until use. The Tat-PSD-95 PDZ2WT and MUT plasmids used to generate proteins containing an amino-terminal, in-frame, 11-amino-acid, minimal transduction domain (residues 47-57 of human immunodeficiency virus Tat protein) termed Tat. […] Fang et al., 2003. […]

C57BL6 mice = test: Novel object recognition at PND21; assay type: in vivo; conditions: molsidomine 4 mg/kg ip after PND7 exposure, PND21
Experimental: 1.3.2 Anesthesia, Peptide, and Molsidomine Injections. PND7 control and experimental mice were placed in a clear plastic cone and body temperature maintained by a heating blanket set to 35° C. Vital signs and physiological monitoring were assessed using PhysioSuite® (Kent Scientific Corporation, Torrington, Conn., USA) and blood gasses were collected arterially. […] Note that lower concentrations of 02 can be used, e.g., between 20% to 100% 02, including 20%, 25%, 30%, 35%, 40%, 45%, 50%, 55%, 60%, 65%, 70%, 75%, 80%, 85%, 90%, 95%, 96%, 97%, 98%, 99%, and 100% 02. Naïve animals were left with the dams. Anesthesia was initiated with 2.4% ISO in 100% oxygen for 2 min and tapered down to 1.5% within 15 min. Exposure to 1.5% ISO was continued for 3 hours and 45 min (total 4 hours ISO). Control ‘CON’ animals were exposed to 100% oxygen only. At the end of the exposure animals were maintained in oxygen on the heating blanket for 10 min then returned to dams. […] Tao and Johns, 2008. A single injection of peptide was given ip. Separate peptide cohorts were injected in parallel with mice undergoing exposure to anesthesia or O2 control. Purification of fusion peptides was performed by Creative BioMart (Shirley, N.Y.) and verified by Coomassie blue staining and Western blot analysis and then stored in 10% glycerol/phosphate buffered saline at −80° C. until use. The Tat-PSD-95 PDZ2WT and MUT plasmids used to generate proteins containing an amino-terminal, in-frame, 11-amino-acid, minimal transduction domain (residues 47-57 of human immunodeficiency virus Tat protein) termed Tat. […] Fang et al., 2003. The NO donor molsidomine [(N-[ethoxycarbonyl]-3-[4-morpholinosydnomine] (Sigma, St. Louis, Mo.) was injected at 4 mg/kg into mice ip in 100 μL sterile saline as previously described. The NO donor was added immediately following cessation of anesthesia or control (O2) exposure, i.e., the NO donor was injected 4 hours after onset of anesthesia. One of ordinary skill in the art upon review of the present disclosure would appreciate that the NO donor could be administered at other times during anesthesia, including at the onset of anesthesia. Control animals were injected ip with the vehicle (saline).
1.3.7 Novel Object Recognition. The novel object recognition (NOR) procedure was based upon the original Ennaceur et al., 1988, procedure and was used to assess nonspatial hippocampal memory. Clark et al., 2000; Baker and Kim, 2002; Reger et al., 2009. It consisted of a training ‘familiarization’ phase followed by a testing phase. During training, mice were allowed to freely explore within an opaque box (40 cm W×40 cm L×34 cm H) containing two identical objects for 10 min. Data were recorded with a video camera and time spent with each object was recorded using ANYmaze software (Stoelting). Object investigation time was determined by the amount of time the mouse spent in the zone immediately surrounding the object. […] After 2 h, object recognition was tested, using the same procedure as in training except that a novel object was substituted for one of the familiar training objects and mice were allowed to explore for 5 min. Mice inherently prefer to explore novel objects; thus, a preference for the novel object indicates intact memory for the familiar object.

[3] = test system: hippocampal CA1 LTP (Schaffer collateral pathway); test: Extracellular field-potential recordings, LTP in hippocampal slices at PND21; assay type: in vivo, mice; conditions: molsidomine 4 mg/kg ip after PND7 exposure
Experimental: 1.3.2 Anesthesia, Peptide, and Molsidomine Injections. PND7 control and experimental mice were placed in a clear plastic cone and body temperature maintained by a heating blanket set to 35° C. Vital signs and physiological monitoring were assessed using PhysioSuite® (Kent Scientific Corporation, Torrington, Conn., USA) and blood gasses were collected arterially. […] Note that lower concentrations of 02 can be used, e.g., between 20% to 100% 02, including 20%, 25%, 30%, 35%, 40%, 45%, 50%, 55%, 60%, 65%, 70%, 75%, 80%, 85%, 90%, 95%, 96%, 97%, 98%, 99%, and 100% 02. Naïve animals were left with the dams. Anesthesia was initiated with 2.4% ISO in 100% oxygen for 2 min and tapered down to 1.5% within 15 min. Exposure to 1.5% ISO was continued for 3 hours and 45 min (total 4 hours ISO). Control ‘CON’ animals were exposed to 100% oxygen only. At the end of the exposure animals were maintained in oxygen on the heating blanket for 10 min then returned to dams. […] Tao and Johns, 2008. A single injection of peptide was given ip. […]
1.3.6.2. […] Synaptic responses were recorded using a MultiClamp 700B amplifier, and the signal was digitized with Digidita 1440A, analyzed with pClamp10 and stored on a personal computer. […] Measurements of the fEPSP slopes were made during the rising phase (5-50% of the peak) and the values normalized to the mean values recorded in 20-min baseline. […]

Row | SMILES | amount of pERK (ERK) | effect on isoflurane-induced loss of synapses at DIV14 (neuron cultures) | effect on PDZ2WT-induced loss of long thin spines and filopodia at DIV7 (primary neuron cultures) | effect on isoflurane-induced loss of long thin spines and filopodia at DIV7 (primary neuron cultures) | PDZ domain-mediated protein interactions [1] | also measured
1 | COc1ccc(Cc2nn3c([C@@H](CCCc4ccccc4)[C@@H](C)O)nc(C)c3c(=O)[nH]2)cc1OC [BAY 60-7550] | significant increases in the amount of pERK | – | – | – | – | –
2 | NCCN(CCN)/[N+]([O-])=N/O [DETA NONOate] | – | prevented loss of synapses | prevented loss of immature spines | prevented loss of immature spines | – | –
3 | O=c1onc2cnc3ccccc3n12 [ODQ] | – | blocked the prevention with DETA | blocked the prevention with NO donor | blocked the prevention with NO donor | – | –
4 | FC(F)(F)C(Cl)Br (centres unmarked) [halothane, 2-bromo-2-chloro-1,1,1-trifluoroethane] | – | – | – | – | can disrupt PDZ domain-mediated protein-protein interactions in vitro and in vivo | –
5 | CCOC(=O)Nc1c[n+](N2CCOCC2)no1 [molsidomine, N-ethoxycarbonyl-3-morpholinosydnonimine] | significant increases in the amount of pERK | – | – | – | – | effect of NO donor on decrease in mushroom spine density caused by isoflurane or PDZ2WT peptide [2]: prevents the decrease in mushroom spine density; effect of NO donor on impairment in recognition memory caused by ISO or PDZ2WT peptide (C57BL6 mice): prevents impairment in LTP and recognition memory; effect of NO donor on impairment in LTP caused by ISO or PDZ2WT peptide [3]: prevents impairment in LTP and recognition memory
6 | FCOC(C(F)(F)F)C(F)(F)F [sevoflurane, 1,1,1,3,3,3-hexafluoro-2-(fluoromethoxy)propane] | – | – | – | – | can disrupt PDZ domain-mediated protein-protein interactions in vitro and in vivo | long thin spines and filopodia at DIV7 after exposure (primary neuron cultures; 4 hrs: isoflurane 1.5%, PDZ2WT peptide 1 μM or sevoflurane 2.1%): loss of filopodia
